IC50 data for 13 compounds are collected here from ChEMBL document CHEMBL5331053, “Defining the structure-activity relationship for a novel class of allosteric MKP5 inhibitors” (Eur J Med Chem, 2022).

In assay [1] the target is T1, Dual specificity protein phosphatase 10 (Homo sapiens, UniProt Q9Y6W6).
T1 sequence (Q9Y6W6 whole entry): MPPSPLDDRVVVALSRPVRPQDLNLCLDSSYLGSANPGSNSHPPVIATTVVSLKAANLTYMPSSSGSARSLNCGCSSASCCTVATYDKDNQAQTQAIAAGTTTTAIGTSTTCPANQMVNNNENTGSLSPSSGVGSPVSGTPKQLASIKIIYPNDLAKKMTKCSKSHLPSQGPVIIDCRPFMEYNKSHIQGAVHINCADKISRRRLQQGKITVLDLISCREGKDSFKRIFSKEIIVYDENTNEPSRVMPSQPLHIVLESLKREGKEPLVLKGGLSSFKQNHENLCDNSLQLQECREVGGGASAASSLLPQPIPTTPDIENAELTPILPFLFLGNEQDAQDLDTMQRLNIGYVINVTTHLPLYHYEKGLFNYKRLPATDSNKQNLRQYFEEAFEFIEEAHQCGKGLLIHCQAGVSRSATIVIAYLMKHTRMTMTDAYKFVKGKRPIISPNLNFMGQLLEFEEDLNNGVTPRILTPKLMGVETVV
As to the kind of experiment: Inhibition of human MKP5 catalytic domain (320 to 467 residues) expressed in Escherichia coli BL21 (DE3) cells by MST assay.

Assay [2] addresses T1, Dual specificity protein phosphatase 10. As to the kind of experiment: Inhibition of MKP5 catalytic domain (unknown origin) expressed in Escherichia coli BL21 (DE3) cells assessed as p38alpha MAPK phosphopeptide dephosphorylation using phosphopeptide as substrate incubated for 15 mins followed by substrate addition by malachite green dye based analysis.

With `CSc1scc2c1-c1nc(SCC(=O)C(C)(C)C)ncc1CC2`, the concentration for half-maximal inhibition (IC50) (usually the concentration needed to halve the response being measured) was 3.8 µM in assay [1] and 2.8 µM in assay [2].

Turning to `CCc1csc2c1-c1nc(SCC(=O)C(C)(C)C)ncc1CC2`, the IC50 in assay [2] was determined as 5 µM.

`Cc1ccc2c(c1)-c1nc(SCC(=O)C(C)(C)C)ncc1CC2`: the IC50 in assay [2] came to 7.5 µM.

`CC(C)(C)C(=O)CSc1ncc2cnc3ccccc3c2n1`: in assay [2], the IC50 came out at 59 µM.

For `CCN(C)C(=O)CSc1ncc2c(n1)-c1c(csc1SC)CC2`, in assay [2], the IC50 is 81 µM.

Turning to `CC(C)(C)C(=O)CSc1nccc(-c2cccnc2)n1`, the half-maximal inhibitory concentration (IC50) in assay [2] was 100 µM.

For `CC(C)(C)C(=O)CSc1ncc2c(n1)-c1cccnc1CC2`, the IC50 in assay [2] came out at 76 µM.

For the compound `CC(C)(C)C(=O)CSc1ncc2c(n1)-c1cc(Cl)ccc1CC2`, in assay [2], the IC50 was found to be 4 µM.

With `CC(=O)N1Cc2cnc(SCC(=O)C(C)(C)C)nc2-c2ccccc21`, the IC50 in assay [2] turned out to be 150 µM.

`CC(C)(C)C(=O)CSc1ncc2c(n1)-c1ccccc1CC2`: in assay [2], the IC50 came to 6.2 µM.

Turning to `CC(C)(C)C(=O)CSc1ncc2c(n1)-c1ccsc1CC2`, the IC50 in assay [2] stood at 7.1 µM.

As to `CC(C)(C)C(=O)CSc1nccc(-c2ccccc2)n1`, the IC50 in assay [2] stood at 27 µM.

Take `CCCc1csc2c1-c1nc(SCC(=O)C(C)(C)C)ncc1CC2`: in assay [2], the concentration for half-maximal inhibition (IC50) worked out at 11 µM.
